Article PMC12040169 (PLOS Biology, 2025)

Assay: in vitro
Conditions: human, hela cells, % viability

Row | SMILES | viability at 28.5 h, 10 µM [%] | viability at 28.5 h, 10 µM (bulk resorufin, single well) [%]
1 | Cc1c(S(=O)(=O)NCc2ccc(C(F)(F)F)c(F)c2)cnn1-c1ccccc1 [CBK062115] | 108 | –
2 | Cc1ccc(OCCSc2nnc3[nH]c4ccccc4n23)cc1 [CBK267922] | 96.2 | –
3 | CCOC(=O)c1ccoc1CN1CCCC1c1ccsc1 (stereo not drawn) [CBK304878] | 86.7 | –
4 | Cc1cc(C)n(-c2nc3ccccc3nc2N2CCN(S(=O)(=O)c3ccccc3)CC2)n1 [CBK269399] | 79.9 | –
5 | CC(C)/N=C1/N[C@@H]2CS(=O)(=O)C[C@H]2O1 [CBK019692G] | 87 | –
6 | Cc1cc(CN(C)Cc2c(C)nc3c(C)cccn23)n[nH]1 [CBK281716] | 99.1 | –
7 | Cc1cc(C)nc(SCc2csc(N)n2)n1 [CBK019838] | 106 | –
8 | Cc1nc2c(c(=O)[nH]1)CC[C@@H]1CN(C(=O)Cc3ccsc3)C[C@H]21 [CBK284411] | 83.5 | –
9 | Cc1cc(CC(=O)Nc2ccc3[nH]ccc3c2)on1 [CBK159690] | 103 | –
10 | O=[N+]([O-])c1ccc(Sc2nnc(COc3ccccc3)n2-c2ccccc2)nc1 [CBK265041] | 85.8 | –
11 | COc1cc(F)cc(OC2CCNCC2)c1NC(=O)c1c(-c2ccccc2)noc1C [CBK050350T] | 91.8 | –
12 | O=C(Nc1ccc(C(=O)Nc2cccc(-c3nc4ccccc4o3)c2)cc1)c1ccc([N+](=O)[O-])cc1 [CBK262606] | 96.6 | –
13 | Cc1cc(C)nc(Sc2nnc(-c3ccc(C)c(S(=O)(=O)N4CCOCC4)c3)c3ccccc23)n1 [CBK264400] | 105 | –
14 | O=S(=O)(N1CCCCC1)N1CCCN(S(=O)(=O)N2CCCCC2)CC1 [CBK268939] | 85.4 | –
15 | N=C1NC(=O)/C(=C\c2cccc(C(=O)O)c2)S1 [CBK264832] | 97.6 | –
16 | O=C(c1cnc2cc(Cl)ccc2c1O)N1CCN(c2ncccn2)CC1 [CBK107358] | 108 | –
17 | CSc1ncc(C(=O)N2CCN3CCN(C)CC3C2)c(=O)[nH]1 (stereo not drawn) [CBK307677] | 104 | –
18 | FC(F)(F)c1ccc(CN2CCC(Oc3nccnc3OCc3cccnc3)CC2)cc1 [CBK083160T] | 91.6 | –
19 | O=C(NCc1ccc(Cl)c(Cl)c1)Nc1cccc(C(=O)O)c1 [CBK155461G] | 109 | –
20 | O=C1CC2(CCN(C(=O)C3CCCC3)CC2)Oc2ccccc21 [CBK283485] | 94.9 | –
21 | OCCN1CCC2(CC1)CN(CCO)c1ccccc12 [CBK126759] | 87.4 | –
22 | Cc1csc(C(Cc2cccs2)NC(=O)C2CCOC2)n1 (stereo not drawn) [CBK285123] | 106 | –

Row | SMILES | viability at 28.5 h, 10 µM [%] | viability at 28.5 h, 10 µM (bulk resorufin, single well) [%]
23 | Cc1cc(C(=O)N2CCN(Cc3ccc(F)cc3Cl)CC2)no1 [CBK268126] | 100 | –
24 | COc1ccc(CCNCC2OCCc3cccc(OC)c32)cc1OC (stereo not drawn) [CBK024032C] | 118 | –
25 | COc1cc(/C=C2\C(=O)NC(=O)N(c3ccc(O)cc3)C2=O)cc(I)c1O [CBK264298] | – | 114
26 | CC(=O)Nc1ccc(S(=O)(=O)N2CCN(S(=O)(=O)N(C)C)CC2)cc1 [CBK266545] | 95.9 | –
27 | CC(C)Nc1ccc(C(=O)N2CCC(N3CCOCC3)CC2)cn1 [CBK304353] | 105 | –
28 | CC(C)N(CCOc1nccnc1-c1ccc(OC(F)(F)F)cc1)C(C)C [CBK106848] | 89.3 | –
29 | Cc1cc2c(cc1Br)NC(=O)/C2=N\O [CBK288453] | 56 | –
30 | Cc1ccc(-c2cc3ccccn3c2C(=O)CSc2nncn2C)cc1 [CBK269580] | 83.5 | –
31 | Cn1c(=O)sn(-c2ccccc2)c1=O [CBK113677] | 115 | –
32 | Cc1ccccc1C(c1cnccn1)N(C)C(=O)C1CCN(S(=O)(=O)c2cn(C)cn2)CC1 (stereo not drawn) [CBK060264] | 93.1 | –
33 | Cc1cc(NC(=O)c2cccs2)nc2c1c(=O)oc1ccccc12 [CBK287439] | 91.8 | –
34 | CC(=O)Nc1cccc(CN2CCCC2CN2CCCC2CO)c1 (stereo not drawn) [CBK305163] | 98.9 | –
35 | COc1ccc(CNC(=O)c2cc(S(=O)(=O)N3CCCCC3)cs2)cc1 [CBK307590] | 85.9 | –
36 | O=C1CCC(=O)N1CCOc1nccnc1N1CCN(Cc2ccc(Cl)c(Cl)c2)CC1 [CBK084287] | 92.9 | –
37 | O=C(Cc1ccc(Cl)c(Cl)c1)Nc1ccccc1-c1ccc2c(c1)COC1(CCNCC1)O2 [CBK107890] | – | 100
38 | CS(=O)(=O)N(CC(=O)O)c1cccc2ccccc12 [CBK262420] | 101 | –
39 | Cc1ccccc1C1(O)CCN(C(=O)C(c2cccs2)c2cccs2)CC1 [CBK286483] | 106 | –
40 | CC(=O)Nc1cc(C(=O)NCCc2ccccc2)ccc1S(=O)(=O)c1ccc(C)cc1 [CBK071771] | 89.3 | –
41 | COCCc1noc(CC2CCN(c3ncc(Cl)cn3)CC2)n1 [CBK304172] | 88.7 | –
42 | CCCc1cc(C(=O)N2CCc3sccc3C2C)[nH]n1 (stereo not drawn) [CBK283072] | 101 | –
43 | O=C(CCCOc1ccccc1)Nc1cccc(N2CCNCC2)c1 [CBK028290T] | 95.4 | –
44 | Cc1noc(C)c1C(=O)Nc1ccc(S(=O)(=O)NCCc2ccccc2)cc1 [CBK268183] | 92.8 | –

Row | SMILES | viability at 28.5 h, 10 µM [%] | viability at 28.5 h, 10 µM (bulk resorufin, single well) [%]
45 | CC(=O)Nc1cccc(NC(=O)CN(CCO)C2CCCCC2)c1 [CBK304239] | 85.7 | –
46 | CCN1C(=O)C(F)(CC)C(=O)c2ccccc21 (stereo not drawn) [CBK098854] | 107 | –
47 | Fc1ccc(Nc2cncc(-c3cccs3)n2)cc1Cl [CBK065813] | 94.3 | –
48 | O=C(O)/C(=C\c1ccc(Cl)cc1)NC(=O)c1ccccc1I [CBK265701] | 90.1 | –
49 | CCOCCn1cnc2sc(C(=O)NCc3ccccn3)c(C)c2c1=O [CBK071857] | 93.4 | –
50 | CCc1nc2ccc(C(=O)NCC3CCCCC3)cn2c1N(C)Cc1ccc(OC)cc1 [CBK145568] | 91.1 | –
51 | O=C1CSC2(C(=O)Nc3ccc(Br)cc32)N1c1cccc([N+](=O)[O-])c1 (stereo not drawn) [CBK093451] | 94.3 | –
52 | O=C(O)CN1C(=O)/C(=C/C2=Cc3ccccc3OC2)SC1=S [CBK264787] | 103 | –
53 | c1cncc(-c2cc(NCCc3ccncc3)ncn2)c1 [CBK037716] | 114 | –
54 | C#CCOc1ccc(/C=N/N=C(\N)c2nonc2N)cc1OC [CBK264765] | 109 | –
55 | Cc1ccc(S(=O)(=O)Nc2cccc(C(=O)N3CCN(C)CC3)c2)cc1[N+](=O)[O-] [CBK038976] | 89.5 | –
56 | O=C(O)c1nccnc1-c1ccc(COc2cccc3ccccc23)cc1 [CBK050810] | 95.4 | –
57 | O=C(O)c1cc(-n2c(S)nnc2-c2ccc3ccccc3n2)ccc1Cl [CBK269512] | 86.1 | –
58 | CCOC(=O)c1ccc(N2C(=O)CC(N3CCN(c4ncccn4)CC3)C2=O)cc1 (stereo not drawn) [CBK263306] | 105 | –
59 | O=C1/C(=C/c2ccc(OCc3ccccc3Cl)c(Cl)c2)SC(=S)N1Cc1cccnc1 [CBK264702] | 92.4 | –
60 | Cc1cccc(CN2CC[C@H]3[C@@H](C2)[C@H](c2ccsc2)CN3C(=O)c2ccc(F)cc2)c1 [CBK285639] | 94.9 | –
61 | Cc1noc(C)c1NC(=O)c1ccc2ccccc2n1 [CBK200309] | 101 | –
62 | COc1ccccc1-c1cnc2[nH]c(=O)n(CC(C)(C)CO)c2n1 [CBK064690] | 90.2 | –
63 | Cc1ccc(S(=O)(=O)c2cc3c(=O)n4ccccc4nc3n(CCN3CCOCC3)c2=N)cc1 [CBK265637] | 80.3 | –
64 | CC(C)NC(=O)c1sc2ccccc2c1C1CN(Cc2cccc3ncccc23)CCO1 (stereo not drawn) [CBK285879] | 85.6 | –
65 | Nc1ncnc(Nc2cc(C(F)(F)F)cc(C(F)(F)F)c2)n1 [CBK006617] | 86.8 | –
66 | Cc1nn(CC(C)C(=O)NCCN2CCC(C)CC2)c(C)c1Cl (stereo not drawn) [CBK281570] | 94.2 | –

Row | SMILES | viability at 28.5 h, 10 µM [%] | viability at 28.5 h, 10 µM (bulk resorufin, single well) [%]
67 | COCCOC(=O)C1=C(C)NC2=C(C(=O)CC(c3ccc(OC)cc3)C2)C1c1ccc(F)cc1 (stereo not drawn) [CBK293921] | 88.9 | –
68 | CCOC(=O)Cn1c(CN2CCCCC2C)nc2c1c(=O)n(C)c(=O)n2C (stereo not drawn) [CBK269382] | 95.1 | –
69 | O=C(CSc1nnc(CN2CCOCC2)n1-c1ccc(Cl)cc1)N1CCc2ccccc21 [CBK269008] | 97.9 | –
70 | CN(C)CCCn1c(=O)n(CC(=O)O)c(=O)c2c3c(sc21)CCC3 [CBK286783] | 110 | –
71 | CNS(=O)(=O)c1cc(C(=O)N2CCN(c3ccccc3)CC2)ccc1OC [CBK270192] | 88.9 | –
72 | Nc1nc(=O)c2cnc3ccc(C(=O)O)cc3c2s1 [CBK291239] | 96.7 | –
73 | COc1cc2c(cc1OC)C(C)N(C(=O)Nc1ccc3c(c1)OCCO3)CC2 (stereo not drawn) [CBK086204] | 94.8 | –
74 | COc1cc([N+](=O)[O-])ccc1NC(=S)NNS(=O)(=O)c1cc(Cl)c(Cl)cc1Cl [CBK266863] | 96.2 | –
75 | COc1ccc(CNC(=O)c2cc(S(=O)(=O)N3CCCC3)c[nH]2)cc1 [CBK304601] | 102 | –
76 | O=C(O)C1CC(O)CN1S(=O)(=O)c1ccc(Cl)cc1 (stereo not drawn) [CBK266106] | 86.8 | –
77 | Cc1ccc(S(=O)(=O)N(CC(=O)Nc2cccnc2)c2cc(C)ccc2C)cc1 [CBK264115] | 61.7 | –
78 | CN(C)c1ccc(-c2cncc(NCc3ccc4c(c3)OCO4)n2)cc1 [CBK037190] | 108 | –
79 | CCOC(=O)c1cnn(C2CCCN(Cc3ccsc3)C2)c1 (stereo not drawn) [CBK305112] | 94.9 | –
80 | FC(F)(F)c1cccc(SCCc2ccccn2)n1 [CBK103719] | 97.3 | –
81 | O=C(O)C1CC=C(Cl)CC1C(=O)Nc1ccc(Cl)cc1[N+](=O)[O-] (stereo not drawn) [CBK265612] | 101 | –
82 | N#Cc1cccc(S(=O)(=O)Nc2cccc3[nH]ccc23)c1 [CBK155771] | 60.6 | –
83 | O=C(Nc1ccccc1)OCC(CN1CCCCC1)OC(=O)Nc1ccccc1 (stereo not drawn) [CBK023067C] | 103 | –
84 | CN(C)CCN(C)c1ccc(/C=C/c2ccccc2)cn1 [CBK037026] | 98.4 | –
85 | CN1CCC(=NNC(=O)CN(c2ccc(Oc3ccccc3)cc2)S(C)(=O)=O)CC1 [CBK262338] | 93.2 | –
86 | COc1cc(Nc2cncc(-c3ccc(O)cc3)n2)c(Cl)cc1C(=O)NCC1CCCO1 (stereo not drawn) [CBK126468] | 100 | –
87 | Nc1ncnc2c1ncn2[C@@H]1O[C@H](CO)[C@H](O)C1O (stereo partly drawn) [CBK201199] | – | 95.8
